In patent US7829665B2 (priority 2005, dated 2010):
Like-named read-outs stand apart in the source and are kept apart here.

Legend:
[1] = biological target: T1, full-length NS3/NS4A-2 (HCV NS3 protease) (Hepatitis C virus genotype 1a, UniProt P27958); assay: NS3-NS4 protease assay / NS3 inhibition assay (RETS1 substrate, fluorescence kinetic read); format: biochemical
T1 construct: Recombinant E. coli or Baculovirus full-length NS3 was diluted to 3.33 μM with assay buffer; made in house; host or cells: E. coli or baculovirus (BV) expression system
Outline: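 Full-length NS3 from E. coli (2 nM in assay) or baculovirus (3 nM) was precomplexed with excess NS4A-2 peptide, then preincubated 10 min at room temperature with serially diluted compounds starting at 50 microM. Reaction was started with RETS1 substrate at 8 μM before addition and read kinetically for 30 min (ex 335/em 495 nm). Four-parameter IC50s were converted to Ki by Cheng-Prusoff using Km 2.03 μM (E. coli) or 1.74 μM (BV).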

[2] = test system: HCV sub-genomic replicon in GS4.3 cells (HuH-7 hepatoma cells); assay: Quantitation by ELISA of Neomycin phosphotransferase II (NPTII) in the HCV sub-genomic replicon, GS4.3; format: cell-based, hepatitis C virus; settings: Hepatitis C virus, Huh-7; GS4.3 cells, 72 h incubation, NPTII ELISA; read-out: Replicon EC50
Outline: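 HuH-7 GS4.3 cells carrying HCV sub-genomic replicon 1377/NS3-3′, treated 72 h at 37 °C without G418 with 3-fold dilutions from 10 μM to 56 pM (1% DMSO). NPTII in cell lysates measured by direct ELISA with TMB readout at 450 nm. EC50 from 4-parameter fit of percent DMSO-control signal.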

[3] = recombinant E. coli or Baculovirus full-length NS3 with NS4A-2, read-out: NS3-NS4 IC50

T1 sequence (P27958 1027-1657): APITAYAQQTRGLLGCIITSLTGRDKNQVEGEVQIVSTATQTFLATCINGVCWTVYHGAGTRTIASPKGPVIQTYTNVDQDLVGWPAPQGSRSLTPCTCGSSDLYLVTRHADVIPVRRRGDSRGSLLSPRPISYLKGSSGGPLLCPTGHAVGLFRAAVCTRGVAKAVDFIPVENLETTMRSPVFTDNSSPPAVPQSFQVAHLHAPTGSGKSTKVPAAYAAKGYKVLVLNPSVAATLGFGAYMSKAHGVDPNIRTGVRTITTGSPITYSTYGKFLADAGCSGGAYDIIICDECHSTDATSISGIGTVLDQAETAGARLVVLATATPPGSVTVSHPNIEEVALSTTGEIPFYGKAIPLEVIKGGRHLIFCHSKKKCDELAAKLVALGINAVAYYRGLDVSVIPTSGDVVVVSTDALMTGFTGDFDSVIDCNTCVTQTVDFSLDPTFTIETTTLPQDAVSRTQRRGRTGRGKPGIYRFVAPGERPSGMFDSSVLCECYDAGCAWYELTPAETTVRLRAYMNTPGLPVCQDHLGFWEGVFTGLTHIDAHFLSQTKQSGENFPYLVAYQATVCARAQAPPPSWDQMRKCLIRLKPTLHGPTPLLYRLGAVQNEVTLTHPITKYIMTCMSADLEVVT

Compound | IC50 [1, 3] [nM] | EC50 [2] [nM] | IC50 [1] [nM]
CC(C)(C)OC(=O)N[C@H]1CCCCC/C=C\[C@@H]2C[C@@]2(C(=O)N[C@H]2CCS(=O)(=O)C2)NC(=O)[C@@H]2C[C@@H](OC(=O)N3Cc4cccc(F)c4C3)CN2C1=O [Compound 634] | < 1000 | < 10000 | –
N#CNC(=O)[C@@]12C[C@H]1/C=C\CCCCC[C@H](NC(=O)OC1CCCC1)C(=O)N1C[C@H](OC(=O)N3Cc4cccc(F)c4C3)CC1C(=O)N2 (some centres unmarked) [Compound 637] | < 100 | > 10000 | –
O=C(N[C@H]1CCCCC/C=C\[C@@H]2C[C@@]2(C(=O)NS(=O)(=O)N(CC(F)(F)F)CC(F)(F)F)NC(=O)[C@@H]2C[C@@H](OC(=O)N3Cc4cccc(F)c4C3)CN2C1=O)OC1CCCC1 [Compound 224] | < 1000 | < 10000 | –
CC(C)(C)OC(=O)N[C@H]1CCCCC/C=C\[C@@H]2C[C@@]2(C(=O)O)NC(=O)[C@@H]2C[C@@H](OC(=O)Nc3nc4ccccc4s3)CN2C1=O [Compound 139] | < 1000 | > 10000 | –
O=C(N[C@H]1CCCCC/C=C\[C@@H]2C[C@@]2(C(=O)NS(=O)(=O)N2CC(F)(F)C2)NC(=O)C2C[C@@H](OC(=O)N3Cc4cccc(F)c4C3)CN2C1=O)OC1CCCC1 (some centres unmarked) [Compound 229] | < 100 | < 1000 | –
N#CNC(=O)[C@@]12C[C@H]1/C=C\CCCCC[C@H](NC(=O)CCC(F)(F)F)C(=O)N1C[C@H](OC(=O)N3Cc4cccc(F)c4C3)CC1C(=O)N2 (some centres unmarked) [Compound 642] | < 1000 | > 10000 | –
N[C@H]1CCCCC/C=C\[C@@H]2C[C@@]2(C(=O)NS(=O)(=O)C2CC2)NC(=O)[C@@H]2C[C@@H](OC(=O)N3Cc4c(Cl)ccc(Cl)c4C3)CN2C1=O [Compound 156] | – | < 1000 | < 100
CN(Cc1ccccc1)C(=O)O[C@@H]1C[C@H]2C(=O)N[C@]3(C(=O)NS(=O)(=O)C4CC4)C[C@H]3/C=C\CCCCC[C@H](NC(=O)OC(C)(C)C)C(=O)N2C1 [Compound 245] | < 100 | < 1000 | –
COCC1c2cccc(F)c2CCN1C(=O)O[C@@H]1CC2C(=O)N[C@]3(C(=O)NS(=O)(=O)C4CC4)C[C@H]3/C=C\CCCCC[C@H](N)C(=O)N2C1 (some centres unmarked) [Compound 106] | < 1000 | > 10000 | –
CC(C)(C)OC(=O)N[C@H]1CCCCC/C=C\[C@@H]2C[C@@]2(C(=O)NC(=O)N2CCOCC2)NC(=O)[C@@H]2C[C@@H](OC(=O)N3Cc4cccc(F)c4C3)CN2C1=O [Compound 234] | < 100 | < 100 | –
O=C1N[C@]2(C(=O)NS(=O)(=O)C3CC3)C[C@H]2/C=C\CCCCC[C@H](NCc2ccc(F)c(F)c2)C(=O)N2C[C@H](OC(=O)N3Cc4cccc(F)c4C3)C[C@@H]12 [Compound 904] | < 100 | < 100 | –
CN(C)c1c(N[C@H]2CCCCC/C=C\[C@@H]3C[C@@]3(C(=O)NS(=O)(=O)C3CC3)NC(=O)[C@@H]3C[C@@H](OC(=O)N4Cc5cccc(F)c5C4)CN3C2=O)c(=O)c1=O [Compound 185] | < 100 | < 10000 | –
CC(C)(C)OC(=O)N[C@H]1CCCCC/C=C\[C@@H]2C[C@@]2(C(=O)NCC2CC2)NC(=O)[C@@H]2C[C@@H](OC(=O)N3Cc4cccc(Cl)c4C3)CN2C1=O [Compound 627] | < 100 | < 100 | –
CC(C)(C)OC(=O)N[C@H]1CCCCCCC[C@@H]2C[C@@]2(C(=O)NS(=O)(=O)C2CC2)NC(=O)[C@@H]2C[C@@H](OC(=O)N3Cc4cccc(F)c4C3)CN2C1=O [Compound 268] | < 100 | < 100 | –
O=C(CCC(F)(F)F)N[C@H]1CCCCC/C=C\[C@@H]2C[C@@]2(C(=O)O)NC(=O)[C@@H]2C[C@@H](OC(=O)N3Cc4cccc(F)c4C3)CN2C1=O [Compound 135] | < 100 | < 10000 | –
O=C(N[C@H]1CCCCC/C=C\[C@@H]2C[C@@]2(C(=O)O)NC(=O)[C@@H]2C[C@@H](OC(=O)N3Cc4cccc(Cl)c4C3)CN2C1=O)OC1CCCC1 [Compound 138] | < 100 | < 1000 | –
O=C(N[C@H]1CCCCC/C=C\[C@@H]2C[C@@]2(C(=O)O)NC(=O)[C@@H]2C[C@@H](OC(=O)N3Cc4ccncc4C3)CN2C1=O)OC1CCCC1 [Compound 146] | < 100 | > 10000 | –

Compound | IC50 [1, 3] [nM] | EC50 [2] [nM] | IC50 [1] [nM]
CC(C)(C)OC(=O)N[C@H]1CCCCC/C=C\[C@@H]2C[C@@]2(C(=O)NCCO)NC(=O)[C@@H]2C[C@@H](OC(=O)N3Cc4cccc(F)c4C3)CN2C1=O [Compound 620] | < 1000 | < 10000 | –
CC(C)C(O)C(=O)N[C@H]1CCCCC/C=C\[C@@H]2C[C@@]2(C(=O)NS(=O)(=O)C2CC2)NC(=O)[C@@H]2C[C@@H](OC(=O)N3Cc4cccc(F)c4C3)CN2C1=O (some centres unmarked) [Compound 250] | < 100 | < 1000 | –
CC(C)(C)OC(=O)N[C@H]1CCCCC/C=C\[C@@H]2C[C@@]2(C(=O)O)NC(=O)[C@@H]2C[C@@H](OC(=O)N3Cc4ccc(OCCn5cccn5)cc4C3)CN2C1=O [Compound 130] | < 100 | < 10000 | –
CC(C)(C)OC(=O)N[C@H]1CCCCC/C=C\[C@@H]2C[C@@]2(C(=O)NS(=O)(=O)N2CCCC2)NC(=O)[C@@H]2C[C@@H](OC(=O)N3Cc4cccc(Cl)c4C3)CN2C1=O [Compound 214] | < 100 | < 100 | –
CC(C)(C)c1c(N[C@H]2CCCCC/C=C\[C@@H]3C[C@@]3(C(=O)NS(=O)(=O)C3CC3)NC(=O)[C@@H]3C[C@@H](OC(=O)N4Cc5cccc(F)c5C4)CN3C2=O)c(=O)c1=O [Compound 261] | < 100 | < 1000 | –
O=C(N[C@H]1CCCCC/C=C\[C@@H]2C[C@@]2(C(=O)NCC2CC2)NC(=O)[C@@H]2C[C@@H](OC(=O)N3CCc4ccccc4C3)CN2C1=O)OC1CCCC1 [Compound 644] | < 100 | < 1000 | –
CN(C)S(=O)(=O)NC(=O)[C@@]12C[C@H]1/C=C\CCCCC[C@H](N)C(=O)N1C[C@H](OC(=O)N3Cc4ccccc4C3)C[C@H]1C(=O)N2 [Compound 202] | < 100 | < 10000 | –
Cc1cc(CN[C@H]2CCCCC/C=C\[C@@H]3C[C@@]3(C(=O)NS(=O)(=O)C3CC3)NC(=O)[C@@H]3C[C@@H](OC(=O)N4Cc5cccc(F)c5C4)CN3C2=O)oc1C [Compound 915] | < 100 | < 100 | –
CC(C)(C)OC(=O)N[C@H]1CCCCC/C=C\[C@@H]2C[C@@]2(C(=O)NS(=O)(=O)C2(Cc3ccccc3)CC2)NC(=O)[C@@H]2C[C@@H](OC(=O)N3Cc4cccc(Cl)c4C3)CN2C1=O [Compound 161] | < 100 | < 100 | –
CCCNC(=O)[C@@]12C[C@H]1/C=C\CCCCC[C@H](N)C(=O)N1C[C@H](OC(=O)N3Cc4cccc(F)c4C3)C[C@H]1C(=O)N2 [Compound 621] | > 10000 | > 10000 | –
O=C(N[C@H]1CCCCC/C=C\[C@@H]2C[C@@]2(C(=O)NC(=O)C2CC2)NC(=O)[C@@H]2C[C@@H](OC(=O)N3CCc4ccccc4C3)CN2C1=O)OC1CCCC1 [Compound 706] | < 100 | < 100 | –
CC(C)(C)OC(=O)N[C@H]1COCCC/C=C\[C@@H]2C[C@@]2(C(=O)O)NC(=O)[C@@H]2C[C@@H](OC(=O)N3Cc4cccc(Cl)c4C3)CN2C1=O [Compound 1024] | < 100 | < 100 | –
CNC(=O)[C@H](NC(=O)[C@@]12C[C@H]1/C=C\CCCCC[C@H](NC(=O)OC(C)(C)C)C(=O)N1C[C@H](OC(=O)N3Cc4cccc(F)c4C3)C[C@H]1C(=O)N2)c1ccc(F)cc1 [Compound 632] | < 1000 | < 10000 | –
CC(C)(C)OC(=O)N[C@H]1CCCCC/C=C\[C@@H]2C[C@@]2(C(=O)NS(=O)(=O)c2cc(Cl)sc2Cl)NC(=O)[C@@H]2C[C@@H](OC(=O)N3Cc4cccc(Cl)c4C3)CN2C1=O [Compound 172] | < 100 | < 100 | –
CC(C)(O)CC(=O)N[C@H]1CCCCC/C=C\[C@@H]2C[C@@]2(C(=O)NS(=O)(=O)C2CC2)NC(=O)[C@@H]2C[C@@H](OC(=O)N3Cc4cccc(F)c4C3)CN2C1=O [Compound 252] | < 100 | < 10000 | –
O=C1N[C@]2(C(=O)NCC3CC3)C[C@H]2/C=C\CCCCC[C@H](NCc2ccc(F)c(F)c2)C(=O)N2C[C@H](OC(=O)N3Cc4cccc(F)c4C3)C[C@@H]12 [Compound 626] | < 1000 | < 10000 | –
CC(C)(C)OC(=O)N[C@H]1CCCOC/C=C\[C@@H]2C[C@@]2(C(=O)NCC2CC2)NC(=O)[C@@H]2C[C@@H](OC(=O)N3Cc4cccc(F)c4C3)CN2C1=O [Compound 1019] | < 100 | < 1000 | –
